Reference: PubChem BioAssay (NCI)
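Assay format: 96-well plates, 48-hour exposure. GI50 is the concentration that inhibits growth by half. TGI marks complete inhibition of growth.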

The compounds below were run on NCI-H460 lung (assay: NCI anticancer screen, dose series, 48 h).

Compound	TGI [µM]	GI50 [µM]
COc1cc2ccccc2oc1=O	> 100	–
Nc1nc(N)c2nc(CNc3ccc(C(=O)NC(CC(=O)O)C(=O)O)cc3)cnc2n1 (centres undefined)	> 100	0.354
CC(=O)OC[C@]12CC[C@@H](C(=O)CBr)[C@@H]1[C@H]1CC[C@@H]3[C@@]4(C)CCCNC(C)(C)[C@@H]4CC[C@@]3(C)[C@]1(C)CC2	21.8	7.66
COc1cc2c3c(n(CCCCN)c(=O)c2cc1OC)-c1cc2c(cc1C3=O)OCO2	2.07	0.114
N#CCCN(CCCN(CCCN(C(=O)Nc1ccccc1)c1ccccc1)C(=O)Nc1ccccc1)C(=O)Nc1ccccc1	> 8.75	–
C=CCC1(O)c2ccccc2C(=O)c2c(NCCN(CC(=O)OCC)CC(=O)OCC)cccc21 (centres undefined)	> 100	> 100
COc1cccc(-n2nc(C)c3c(N/N=C(\C)c4ccncc4)ncnc32)c1	> 25	> 25
NC(=O)c1ccccc1Nc1ccc2nnc(-c3ccncc3)n2n1	16.9	4.44
CCn1cnc(C[C@H](NC(=O)[C@@H](NC(=O)Nc2cc(C(F)(F)F)cc(C(F)(F)F)c2)C(C)C)C(=O)OC)c1	4.43	2.13
O=C(Nc1cccc(-n2cc(-c3ccncc3)c(-c3ccc(Cl)c(O)c3)n2)c1)c1ccc(N2CCOCC2)c(C(F)(F)F)c1	14.8	1.72
COc1cccc2c1ccc1nc3cccc(C(=O)N[C@H](C)CN(C)C)c3nc12	0.221	0.0354
COc1ccc(/C=C/C(=O)c2ccc(O)c(CN3CCN(c4cc5c(cc4F)c(=O)c(C(=O)O)cn5C4CC4)CC3)c2)cc1	> 100	6.08
NC(=O)c1ccc(I)c(N=O)c1	> 100	62.6
COc1ccc2c(=O)cc(-c3ccncc3)oc2c1OC	72.8	–
CC(=O)C(=Cc1ccc(C=C(C(C)=O)C(C)=O)cc1)C(C)=O	7.38	–
COC(=O)c1ccccc1OCc1cc(=O)oc2ccc(C)cc12	> 100	–
COc1ccc(-c2nc(-c3ccccc3)c(-c3ccccc3)[nH]2)cc1OC1CCCC1	> 100	> 100
O=C(O)c1cc2ccc3ccccc3c2oc1=O	> 100	–
O=[N+]([O-])c1ccc2c(c1)Cc1cc(N=Cc3ccc4c(c3)OCO4)ccc1-2	> 100	–
COC(=O)[C@@]12OC[C@]34[C@H]([C@@H](O)[C@@H]1O)[C@@]1(C)[C@H](O)C(=O)C=C(C)[C@@H]1C[C@H]3OC(=O)C(OC(C)=O)[C@@H]24 (some centres undefined)	0.0524	0.0183

These compounds were tested on SW-620 colon (assay: NCI anticancer screen, dose series, 48 h).

Compound	TGI [µM]	GI50 [µM]
COc1cc2ccccc2oc1=O	> 100	–
Nc1nc(N)c2nc(CNc3ccc(C(=O)NC(CC(=O)O)C(=O)O)cc3)cnc2n1 (centres undefined)	> 100	0.274
CC(=O)OC[C@]12CC[C@@H](C(=O)CBr)[C@@H]1[C@H]1CC[C@@H]3[C@@]4(C)CCCNC(C)(C)[C@@H]4CC[C@@]3(C)[C@]1(C)CC2	8.06	2.77
COc1cc2c3c(n(CCCCN)c(=O)c2cc1OC)-c1cc2c(cc1C3=O)OCO2	2.3	0.0851
N#CCCN(CCCN(CCCN(C(=O)Nc1ccccc1)c1ccccc1)C(=O)Nc1ccccc1)C(=O)Nc1ccccc1	> 100	> 100
C=CCC1(O)c2ccccc2C(=O)c2c(NCCN(CC(=O)OCC)CC(=O)OCC)cccc21 (centres undefined)	> 100	> 100
COc1cccc(-n2nc(C)c3c(N/N=C(\C)c4ccncc4)ncnc32)c1	> 25	> 25
NC(=O)c1ccccc1Nc1ccc2nnc(-c3ccncc3)n2n1	19.1	5.6
CCn1cnc(C[C@H](NC(=O)[C@@H](NC(=O)Nc2cc(C(F)(F)F)cc(C(F)(F)F)c2)C(C)C)C(=O)OC)c1	4.01	2.01
O=C(Nc1cccc(-n2cc(-c3ccncc3)c(-c3ccc(Cl)c(O)c3)n2)c1)c1ccc(N2CCOCC2)c(C(F)(F)F)c1	5.68	1.72
COc1cccc2c1ccc1nc3cccc(C(=O)N[C@H](C)CN(C)C)c3nc12	0.694	0.039
COc1ccc(/C=C/C(=O)c2ccc(O)c(CN3CCN(c4cc5c(cc4F)c(=O)c(C(=O)O)cn5C4CC4)CC3)c2)cc1	> 100	1.38
NC(=O)c1ccc(I)c(N=O)c1	33.3	18.3
COc1ccc2c(=O)cc(-c3ccncc3)oc2c1OC	> 100	–
CC(=O)C(=Cc1ccc(C=C(C(C)=O)C(C)=O)cc1)C(C)=O	1.83	–
COC(=O)c1ccccc1OCc1cc(=O)oc2ccc(C)cc12	> 100	–
COc1ccc(-c2nc(-c3ccccc3)c(-c3ccccc3)[nH]2)cc1OC1CCCC1	> 100	> 100
O=C(O)c1cc2ccc3ccccc3c2oc1=O	> 100	–
O=[N+]([O-])c1ccc2c(c1)Cc1cc(N=Cc3ccc4c(c3)OCO4)ccc1-2	> 100	–
COC(=O)[C@@]12OC[C@]34[C@H]([C@@H](O)[C@@H]1O)[C@@]1(C)[C@H](O)C(=O)C=C(C)[C@@H]1C[C@H]3OC(=O)C(OC(C)=O)[C@@H]24 (some centres undefined)	0.128	0.0242

These compounds were tested on UACC-62 melanoma (assay: NCI anticancer screen, dose series, 48 h).

Compound	TGI [µM]	GI50 [µM]
COc1cc2ccccc2oc1=O	> 100	–
Nc1nc(N)c2nc(CNc3ccc(C(=O)NC(CC(=O)O)C(=O)O)cc3)cnc2n1 (centres undefined)	> 100	3.09
CC(=O)OC[C@]12CC[C@@H](C(=O)CBr)[C@@H]1[C@H]1CC[C@@H]3[C@@]4(C)CCCNC(C)(C)[C@@H]4CC[C@@]3(C)[C@]1(C)CC2	4.71	2.11
COc1cc2c3c(n(CCCCN)c(=O)c2cc1OC)-c1cc2c(cc1C3=O)OCO2	1.04	0.216
N#CCCN(CCCN(CCCN(C(=O)Nc1ccccc1)c1ccccc1)C(=O)Nc1ccccc1)C(=O)Nc1ccccc1	> 100	> 100
C=CCC1(O)c2ccccc2C(=O)c2c(NCCN(CC(=O)OCC)CC(=O)OCC)cccc21 (centres undefined)	> 100	> 100
COc1cccc(-n2nc(C)c3c(N/N=C(\C)c4ccncc4)ncnc32)c1	> 25	> 25
NC(=O)c1ccccc1Nc1ccc2nnc(-c3ccncc3)n2n1	22.2	7.15
CCn1cnc(C[C@H](NC(=O)[C@@H](NC(=O)Nc2cc(C(F)(F)F)cc(C(F)(F)F)c2)C(C)C)C(=O)OC)c1	> 10	6.45
